Measurements taken from patent US10441562B2, “Aromatic farnesyl compound and application thereof” (INSTITUTE OF MICROBIOLOGY, CHINESE ACADEMY OF SCIENCES, priority 2015, dated 2019).
Marks after values point to notes of the source that are not given here.

Key:
Format in all cases: in vivo
[1] = test system: hyperglycemia KK-A^y mice; assay: blood sugar of hyperglycemia KK-A^y mice; design: blood sugar: unit not given here; conditions: for blood sugar at the 1st day, 0: 1st day 0 h; for blood sugar at the 1st day, 30 min: 1st day 30 min after intragastric administration
Description: (§1) Materials: accurately weigh the 2 compounds S13 and S28 discussed in example 2, and then add 0.5% CMC-Na to make the solution of 5 mg/ml used for activity test. KK-A^y mice are purchased from Chinese Academy of Medical Sciences & Peking Union Medical College Institute of Animal Studies. Experiments are carried out after adapting to the environment (T=20-24° C., constant humidity: 50-60%, 12 hours light exposure (8:00-20:00), soundproof, free feeding and drinking) for 1 week. Glucometer is purchased from Roche.
(§2) Methods: 10 male C57 mice of 6-8 weeks of 20-22 g are used as normal control group (1). Detect the fasting glucose of male KK-A^y mice, which are 6-8 weeks with the weight of 28-32 g, and divide them into different groups according to the blood sugar level and body weight: (2) model control group, (3) which is administered by compound S13 with the dose of 1 mg/kg, (4) which is administered by compound S13 with the dose of 5 mg/kg, (5) which is administered by compound S13 with the dose of 10 mg/kg, (6) which is administered by compound S13 with the dose of 20 mg/kg, (7) which is administered by compound S28 with the dose of 1 mg/kg, (8) which is administered by compound S28 with the dose of 5 mg/kg, (9) which is administered by compound S28 with the dose of 10 mg/kg, (10) which is administered by compound S28 with the dose of 20 mg/kg, (11) which is administered by metformin with the dose of 8 g/kg, (12) which is administered by compound S13 with the dose of 2.5 mg/kg and metformin with the dose of 4 g/kg, (13) which is administered by compound S13 with the dose of 5 mg/kg and metformin with the dose of 4 g/kg, (14) which is administered by compound S28 with the dose of 2.5 mg/kg and metformin with the dose of […], (15) which is administered by compound S28 with the dose of 5 mg/kg and metformin with the dose of […]. Each group has 8 mice, and is administrated successively for 3 weeks. Model control group is given with equal amounts of 0.5% CMC-Na.
1) Effects of drugs on blood sugar: at the first day after administration, the mice are fasted for 2 hours and blood is collected (0 h) to detect the fasting blood sugar. After the compound is given to the mice by intragastric administration for 30 min, blood is collected from tip of tail to detect the blood sugar level.
2) Effects on body weight and blood sugar: the body weight of mice are recorded at the 2th, 5th, 8th, 11th, 14th, 17th, 20th day after administration, and blood is collected from tip of tail to detect the blood sugar level (see table 10).

[2] = test system: hyperglycemia KK-A^y mice; assay: blood lipid and liver function of hyperglycemia KK-A^y mice; conditions: 3 weeks
Description: as §1, §2
4) After the last administration, the mice are executed under anesthesia, and blood is taken to be centrifuged at 3000 rpm in 4[…]. Serum total cholesterol, low density lipoprotein and triglyceride TG are detected.

[3] = test system: hyperglycemia KK-A^y mice; assay: liver tissue section of hyperglycemia KK-A^y mice (HE); conditions: FIG. 1, 10 and 20 mg/kg
Description: as §2, with “Detect” for “Methods: 10 male C57 mice of 6-8 weeks of 20-22 g are used as normal control group (1). Detect”, “CMC-Na. […]” for “CMC-Na.”

`CC(C)=CCC/C(C)=C/CCC1=C[C@H](c2cc(O)ccc2O)OC1=O` [S13, (R,E)-5-(2,5-dihydroxyphenyl)-3-(4,8-dimethylnona-3,7-dien-1-yl)furan-2(5H)-one] was tested, and the “effect on blood sugar of hyperglycemia mice (in words)” value [1] was “significant effects on blood sugar of hyperglycemia mice”, the “blood sugar at the 1st day, 0” value ([1]; 1 mg/kg, groups 3, 7) was 14.7 and the “blood sugar at the 1st day, 0” value ([1]; 5 mg/kg, groups 4, 8) was 14.8. The “blood sugar at the 1st day, 0” value ([1]; 10 mg/kg, groups 5, 9) was 14.9, the “blood sugar at the 1st day, 0” value ([1]; 20 mg/kg, groups 6, 10) was 14.7 and the “blood sugar at the 1st day, 30 min” value ([1]; 1 mg/kg, groups 3, 7) was 11.1. For the same compound, the “blood sugar at the 1st day, 30 min” value ([1]; 5 mg/kg, groups 4, 8) was 9.2, the “blood sugar at the 1st day, 30 min” value ([1]; 10 mg/kg, groups 5, 9) was 9.21 and the “blood sugar at the 1st day, 30 min” value ([1]; 20 mg/kg, groups 6, 10) was 6.24. The blood sugar ([1]; 2st day, 1 mg/kg, groups 3, 7) was 17.3, the blood sugar ([1]; 2st day, 5 mg/kg, groups 4, 8) was 10.1 and the blood sugar ([1]; 2st day, 10 mg/kg, groups 5, 9) was 13.98. For the same compound, the blood sugar ([1]; 2st day, 20 mg/kg, groups 6, 10) was 13.2, the blood sugar ([1]; 5st day, 1 mg/kg, groups 3, 7) was 14.1 and the blood sugar ([1]; 5st day, 5 mg/kg, groups 4, 8) was 10.8. It also gave a blood sugar ([1]; 5st day, 10 mg/kg, groups 5, 9) of 13.5, a blood sugar ([1]; 5st day, 20 mg/kg, groups 6, 10) of 12.9 and a blood sugar ([1]; 8st day, 1 mg/kg, groups 3, 7) of 13.8. It also gave a blood sugar ([1]; 8st day, 5 mg/kg, groups 4, 8) of 7.1, a blood sugar ([1]; 8st day, 10 mg/kg, groups 5, 9) of 14.1 and a blood sugar ([1]; 8st day, 20 mg/kg, groups 6, 10) of 12.8. For the same compound, the blood sugar ([1]; 11st day, 1 mg/kg, groups 3, 7) was 15.1, the blood sugar ([1]; 11st day, 5 mg/kg, groups 4, 8) was 8.2 and the blood sugar ([1]; 11st day, 10 mg/kg, groups 5, 9) was 14.2. The blood sugar ([1]; 11st day, 20 mg/kg, groups 6, 10) was 12.8, the blood sugar ([1]; 14st day, 1 mg/kg, groups 3, 7) was 12.3 and the blood sugar ([1]; 14st day, 5 mg/kg, groups 4, 8) was 8.2. For the same compound, the blood sugar ([1]; 14st day, 10 mg/kg, groups 5, 9) was 13.9, the blood sugar ([1]; 14st day, 20 mg/kg, groups 6, 10) was 12.5 and the blood sugar ([1]; 17st day, 1 mg/kg, groups 3, 7) was 13.1. For the same compound, the blood sugar ([1]; 17st day, 5 mg/kg, groups 4, 8) was 8.2, the blood sugar ([1]; 17st day, 10 mg/kg, groups 5, 9) was 14.5 and the blood sugar ([1]; 17st day, 20 mg/kg, groups 6, 10) was 12.3. It also gave a blood sugar ([1]; 20st day, 1 mg/kg, groups 3, 7) of 12.8, a blood sugar ([1]; 20st day, 5 mg/kg, groups 4, 8) of 10.1 and a blood sugar ([1]; 20st day, 10 mg/kg, groups 5, 9) of 14.59. The blood sugar ([1]; 20st day, 20 mg/kg, groups 6, 10) was 12.5, the ALT ([2]; 1 mg/kg, groups 3, 7) was 72.1** U/L and the AST ([2]; 1 mg/kg, groups 3, 7) was 56.2** U/L. For the same compound, the HDL-C ([2]; 1 mg/kg, groups 3, 7) was 22.4 mg/dL, the LDL-C ([2]; 1 mg/kg, groups 3, 7) was 64* mg/dL and the SOD ([2]; 1 mg/kg, groups 3, 7) was 5.01** U/L. The TC ([2]; 1 mg/kg, groups 3, 7) was 132** mg/dL, the TG ([2]; 1 mg/kg, groups 3, 7) was 328** mg/dL and the ALT ([2]; 5 mg/kg, groups 4, 8) was 72.8** U/L. The AST ([2]; 5 mg/kg, groups 4, 8) was 63.5** U/L, the HDL-C ([2]; 5 mg/kg, groups 4, 8) was 22.4 mg/dL and the LDL-C ([2]; 5 mg/kg, groups 4, 8) was 64** mg/dL. For the same compound, the SOD ([2]; 5 mg/kg, groups 4, 8) was 4.24* U/L, the TC ([2]; 5 mg/kg, groups 4, 8) was 134** mg/dL and the TG ([2]; 5 mg/kg, groups 4, 8) was 310** mg/dL. For the same compound, the ALT ([2]; 10 mg/kg, groups 5, 9) was 67.1** U/L, the AST ([2]; 10 mg/kg, groups 5, 9) was 60.8** U/L and the HDL-C ([2]; 10 mg/kg, groups 5, 9) was 22.5 mg/dL. For the same compound, the LDL-C ([2]; 10 mg/kg, groups 5, 9) was 64** mg/dL, the SOD ([2]; 10 mg/kg, groups 5, 9) was 4.11** U/L and the TC ([2]; 10 mg/kg, groups 5, 9) was 131** mg/dL. The TG ([2]; 10 mg/kg, groups 5, 9) was 327** mg/dL, the ALT ([2]; 20 mg/kg, groups 6, 10) was 61.2** U/L and the AST ([2]; 20 mg/kg, groups 6, 10) was 60.5** U/L. The HDL-C ([2]; 20 mg/kg, groups 6, 10) was 22.1 mg/dL, the LDL-C ([2]; 20 mg/kg, groups 6, 10) was 53** mg/dL and the SOD ([2]; 20 mg/kg, groups 6, 10) was 4.52** U/L. The TC ([2]; 20 mg/kg, groups 6, 10) was 125** mg/dL, the TG ([2]; 20 mg/kg, groups 6, 10) was 310** mg/dL and the “fat vacuole in hepatocyte (liver tissue section, HE)” value [3] was “almost disappear”.
